Tests used:
HepG2 cells [1] = test: Cell Proliferation Kit-XTT, metabolic activity; format: cell-based, Human; conditions: 20 nM; 72 h
Protocol: The effect of 9NC (5 to 80 nM) on cell proliferation and DNA synthesis was evaluated by the Cell Proliferation Kit-XTT (Boehringer Mannheim Corp., IN), a non-radioactive, calorimetric ELISA assay which reflects mitochondrial dehydrogenase activity. The assay is based on the cleavage of the yellow tetrazolium salt XTT to form an orange formazan dye by dehydrogenase activity in active mitochondria. This conversion occurs only in living cells and correlates with their overall metabolic activity.
(§1) Human hepatoblastoma cells, HepG2 cells were obtained from the American Type Culture Collection and maintained in RPMI-1640 medium (GIBCO, Grand Island, N.Y.) supplemented with 10% fetal bovine serum (GIBCO), 100 units/ml of penicillin, […] of streptomycin, […] of amphotericin (Sigma Chemical Co.), and 4 mM L-glutamine (GIBCO). The cell cultures were incubated at 37° C. in a humidified CO2 (5%) atmosphere. The cell number in untreated and 9NC-treated cultures was determined with the aid of cell counter (Coulter Electric, Inc., Hialeah, Fla.) and cell viability was monitored by trypan blue dye exclusion.
9NC was semisynthesized from CPT and purified as described by Wani, M. C. et al. (J. Med. Chem. 29:2358-2363 (1986)). A fine suspension of 9NC (10 μM) was prepared in polyethylene glycol (PEG 400; Aldrich, Milwaukee, Wis.), divided into small aliquots and stored at −80° C. until used. […]

HepG2 cells [2] = test: BrdU incorporation ELISA, DNA synthesis; format: cell-based, Human; conditions: 20 nM; 72 h
Protocol: as §1
DNA synthesis was measured by 5-bromo-2′-deoxy-uridine (BrdU) incorporation into cellular DNA following 24 h and 72 h. treatment with 9NC using the Cell Proliferation Assay Kit-BrdU/ELISA (Boehringer Mannheim Corp.). Inhibition of DNA synthesis correlated with the length of 9NC treatment and the concentration of 9NC in the cell culture.

HepG2 cells [3] = test: Cell number by cell counter; format: cell-based, Human; conditions: 20 nM; 72 h
Protocol: as §1
This inhibitory effect was not associated with cell death as assessed by trypan blue dye exclusion.

HepG2 cells [4] = test: Phase contrast microscopy, cell size; format: cell-based, Human; conditions: 9NC-treated cells
Source text: After 3 to […] of treatment the morphology of the cells remained stable with very little change during the three to four week culture period. Overall, cells appeared to be healthy and metabolically active, and resembled the morphology of primary human hepatocytes grown on plastic surfaces. Virtually no cell proliferation was observed following removal of 9NC and the cells maintained a differentiated phenotype without growth.

[5] = system: SDI-1 mRNA in HepG2 cells; test: Northern blot of SDI-1 mRNA (SDI-1/GAPDH) in 9NC-treated cells; format: cell-based, Human
Protocol: Therefore, initial studies to evaluate the levels of SDI-1 were performed with low doses of 9NC. Total RNA was isolated from HepG2 cells treated with 5 nM and 20 nM 9NC for 72 h and the levels of SDI-1 mRNAs expression in cells were examined by Northern blot hybridization analysis. […] The relative amount of SDI-1 mRNA in each sample was calculated as the ratio of SDI-1/GAPDH.
Caffeine abolishes G2 cell cycle checkpoint induced by DNA-damaging agents (Traganos, F. et al., Canc. Res. 53:4613-4618 (1993); Lau, C. C. et al., Proc. Natl. Acad. Sci. (U.S.A.) 79:2942-2946 (1982)). To assess the specificity of SDI-1 induction by 9NC, the levels of SDI-1 expressions were evaluated via Northern blot analysis after simultaneous addition of caffeine (1 mM) and 9NC. […] To establish the kinetics of 9NC-induced upregulation of SDI-1 gene, the cells cultured for 24 h in control medium were treated with 20 nM of 9NC for 0.5 h, 1.5 h, 3 h, 6 h, 12 h, and 24 h respectively.

SDI-1 mRNA = test: Northern analysis of SDI-1 RNA after DNA damaging / growth arrest agents; conditions: bleomycin 75 μg/ml 4 hr; etoposide 400 μM 8 hr; H2O2 400 μM 1 hr; MMS 100 μg 4 hr; Mitomycin C 5 μg/ml 30 hr; CdCl2 250 μM 1 hr; hydroxyurea 2 mM 24 hr; prostaglandin A2 10 μg/ml 24 hr
Protocol: (§2) To evaluate the effect of DNA damaging agents on SDI mRNA production, normal human neonatal foreskin fibroblast cells (strain HCA2); an immortalized cell line (TE85, obtainable from the American Type Culture Collection, Rockville, Md., US), and the above-described MDAH 041 cell lines were employed. All cells were cultured in Eagle's minimal essential medium with Earl's salts plus 10% fetal bovine serum (Gibco BRL, Gaithersburg, Md., US) in 5% CO2 at 37° C., or in Hanks salts plus 10% fetal bovine serum at 37° C. HCA2 cells achieve approximately 80 population doublings before becoming senescent. The cells were used at population doubling 27 or less.
(§3) For UV irradiation, cells were cultured in 150 cm^2 tissue culture dishes. Immediately prior to treatment the medium was removed and the dishes, without lids, were placed in a Stratagene (La Jolla, Calif., US) StratalinkerUV cross-linking device and irradiated with a dose of 30 J/m^2. Fresh serum-supplemented medium was then added and the cells were incubated at 37° C., 5% CO2. γ-irradiation was performed on cells in complete cell culture medium in 25 cm^2 tissue culture flasks, using a fixed ^137Cs source. The dose rate was 4.21 Gy/min. Exposure was to 4 Gy.
(§4) Tritiated thymidine was added 16 hours following each such treatment and the cells were incubated for 8 hours, fixed and processed for autoradiography; as described above. RNA was harvested 4 or 24 hours post treatment using RNAzol B (Cinna/Biotecx, Houston, Tex.) according to the manufacturer's protocol. 10-20 μg of RNA was separated on a 1.2% agarose gel with 20% formaldehyde, transferred to a Gene screen plus (EN, Boston, Mass.) membrane, probed, and quantitated. Fold induction was determined by comparing treated samples with untreated controls. Controls were mock treated cells put through the same washing, media change, transportation, and inadvertent temperature fluctuation as those receiving treatment. Controls for agents dissolved in ethanol or dimethyl sulfoxide were exposed to the same concentration of the solvent alone. SDI-1 RNA values were normalized to GAPBH levels.

[6] = system: normal human neonatal foreskin fibroblast cells (strain HCA2); test: Growth arrest by tritiated thymidine incorporation after DNA damaging / growth arrest agents; format: cell-based; conditions: doses as in Table 10; tritiated thymidine added 16 hours after treatment for 8 hours
Protocol: as §2, §3, §4

[7] = system: SDI-1 message in MDAH 041; test: SDI-1 message level after agents in cells lacking functional p53; format: cell-based, human; conditions: MDAH 041 (no p53); agents of Table 10
Protocol: as §2, §4
(§5) This gene also requires functional p53 for induction by γ-irradiation but not by most other agents (Zhan, Q. et al., Molec. Cell. Biol. 13:4242-4250 (1993)). GADD45 is a member of a family of genes that were identified based upon their induction by both growth arrest and DNA damage (Fornace, A. J. et al., Molec. Cell. Biol. 9:4196-4203 (1989)). […] The above methods can be used to identifiy such additional regulators.

SDI-1 message in TE85 = test: as above; format: cell-based, human; conditions: TE85 (mutant p53); agents of Table 10
Protocol: as §2, §4, §5

[8] = system: cells in medium containing 0.5% FBS; test: SDI-1 antisense oligonucleotide, tritiated thymidine incorporation in low serum; format: cell-based; conditions: 1, 2 or 5 μM on Days 1, 3, 5; harvested day 7
Protocol: Cells were cultured in medium containing 10% fetal bovine serum (FBS) for approximately one week, at which time the medium was replaced with medium containing 0.5% FBS. The cells were divided into control cells and experimental cells. On Day 1, experimental cells were provided with either 1, 2 or 5 μM of the above-described oligonucleotide; Control cells received no oligonucleotide. On Day 3, and again on Day 5, all cells received fresh medium containing 0.5% FBS; experimental cells received additional oligonucleotides (1, 2 or 5 μM). On Day 6, tritiated thymidine was added to the culture media and the cells were harvested on day 7.

cyclin/cdk2 complexes = target: T1, cyclin/cdk2 complexes (Homo sapiens, UniProt P24941); test: Histone H1 kinase activity of cyclin/cdk2 complexes immunoprecipitated from HeLa cell extracts; format: biochemical; conditions: complexes immunoprecipitated by cdk2 antisera
T1 construct: immunoprecipitated from HeLa cell extracts by cdk2 antisera; endogenous in cells; host or cells: HeLa cell extracts, immunoprecipitated with cdk2 antisera
Source text: The physiological significance of inhibition of cell proliferation by overexpression of SDI-1 is strengthened by the finding that SDI-1 can inhibit the kinase activity of cyclin/cdk2 complexes.
[…]

young cells = test: Cellular uptake of GST-SDI-1 fusions and quiescence; format: cell-based
cdk2 protein = target: T2, cdk2 protein (Homo sapiens, UniProt P24941); test: Binding of in vitro translated SDI-1 deletion mutants to purified cdk2, anti-cdk2 immunoprecipitation; conditions: 45 μl translation product, 1 ug cdk2, 4° C.
T2 construct: host or cells: baculovirus expression system
Protocol: To determine whether the DNA synthesis inhibition caused by these mutants was occurring through inhibition of cdk kinases, the binding of in vitro translated deletion mutant proteins products with purified cdk2protein was examined. Thus, the various deletion mutants of SDI-1 were translated in reticulocyte lysates (Promega) using pBluescript based plasmids as transcription templates for the T7 RNA polymerase. For in vitro binding, 45 μl of the translation product was added to 500 μl binding buffer (50 mM Tris/HCl, pH 7.5, 120 mM NaCl, 2 mM EDTA, 0.1% NP-40, 1 mM NaF, 0.1 m.M sodium vanidate, 5 μg/ml leupeptin, 5 μg/ml soybean trypsin inhibitor, 5 μg/ml aprotinin) containing 1 ug cdk2 protein purified from a bacculovirus expression system. The mixture was gently rocked for 1 hour at 4° C. and then 7.5 μg anti-cdk2 rabbit polyclonal antibody was added. Mixing was continued for 1 hour at 4° C. The immunocomplex was absorbed by incubation with 40 μl protein G plus A beads for 2 hr. The matrices were then washed three times with 0.5 ml of binding buffer prior to electrophoresis and autoradiography.

CC[C@@]1(O)C(=O)OCc2c1cc1n(c2=O)Cc2cc3c([N+](=O)[O-])cccc3nc2-1 [9NC]
suppression of metabolic activity (HepG2 cells [1]): approximately 20%
decrease in DNA synthesis (HepG2 cells [2]): at least 4 fold
decrease in cell numbers (HepG2 cells [3]): at least 2 fold
increased cell size (HepG2 cells [4]): 2 to 5 fold
time at which SDI-1 gene expression reached maximum ([5]; 20 nM, 0.5-24 h): 24 h
increase in SDI-1 expression (SDI-1/GAPDH) ([5]; 20 nM, 72 h): At least 3 fold

[Cl][Cd][Cl] [CdCl2, cadmium chloride]
SDI-1 Level (Fold induction of SDI-1 at 24 hour level) (SDI-1 mRNA): 1.3 Fold induction
% Growth Arrest [6]: 0%

OO [H2O2, hydrogen peroxide]
% Growth Arrest [6]: 95%
SDI-1 message level (Control = 1) [7]: 3.3
SDI-1 message level (Control = 1) (SDI-1 message in TE85): 4.0

COS(C)(=O)=O [MMS, methyl methane sulfonate]
% Growth Arrest [6]: 53%

CO[C@@]12[C@H](COC(N)=O)C3=C(C(=O)C(C)=C(N)C3=O)N1C[C@@H]1N[C@@H]12 [Mitomycin C, mitomycin C]
SDI-1 Level (Fold induction of SDI-1 at 24 hour level) (SDI-1 mRNA): 2.8 Fold induction
% Growth Arrest [6]: 100%
SDI-1 message level (Control = 1) (SDI-1 message in TE85): 2.5

Cn1c(=O)c2c(ncn2C)n(C)c1=O [caffeine]
effect on SDI-1 expression ([5]; caffeine (1 mM) alone): no appreciable effect
effect on 9NC-dependent induction of SDI-1 expression ([5]; simultaneous addition of caffeine (1 mM) and 9NC): abrogated

COc1cc([C@@H]2c3cc4c(cc3[C@@H](O[C@@H]3O[C@@H]5CO[C@@H](C)O[C@H]5[C@H](O)[C@H]3O)[C@H]3COC(=O)[C@H]23)OCO4)cc(OC)c1O [etoposide]
% Growth Arrest [6]: 100%

NC(=O)NO [hydroxyurea]
% Growth Arrest [6]: 100%
SDI-1 message level (Control = 1) [7]: 2.5
SDI-1 message level (Control = 1) (SDI-1 message in TE85): 7.5

CCCCC[C@H](O)/C=C/[C@H]1C=CC(=O)[C@@H]1C/C=C\CCCC(=O)O [prostaglandin A2]
SDI-1 Level (Fold induction of SDI-1 at 24 hour level) (SDI-1 mRNA): 6.1 Fold induction
% Growth Arrest [6]: 100%

AGCCGGTTCTGACATGGCG (chemistry not given here) [antisense oligonucleotide]
tritiated thymidine incorporated into DNA relative to control cells [8]: increase

GST-SDI-1 fusion protein: Schistosoma japonicum GST 1-226, hinge Pro-Arg-Gly-Asp-Pro-Pro-Ala, SDI-1; SEQ ID NO:11; printed as SDI-1 in Table 8
amount giving half maximal inhibition of histone H1 kinase activity (cyclin/cdk2 complexes): 250 ng
quiescence of exposed young cells (young cells): exhibited quiescence
detection of fusion protein within the cells (young cells; provided to young cells): detectable within the cells

bleomycin
SDI-1 Level (Fold induction of SDI-1 at 24 hour level) (SDI-1 mRNA): 11.8 Fold induction
% Growth Arrest [6]: 100%

B1: 72-77: SDI-1 mutant with amino acids 72-77 deleted, HA tagged (protein)
chain: MSEPAGDVRQNPCGSKACRRLFGPVDSEQLSRDCDALMAGCIQEARERWNFDFVTETPLEGDFAWERVRGLPRGLPTGPRRGRDELGGGRRPGTSPALLQGTAEEDHVDLSLSCTLVPRSGEQAEGSPGGPGDSQGRKRRQTSMTDFYHSKRRLIFSKRKP
modifications: left off: small tags and cut ends
notes: SDI-1 mutant with amino acids 72-77 deleted, HA tagged
binding to purified cdk2 protein (cdk2 protein): bound cdk2 protein efficiently
